Source: patent US20130309306A1, “INTRAPULMONARY BENZODIAZEPINE FOR THE TREATMENT AND PREVENTION OF SEIZURES” (priority 2010, published 2013)

Legend:
[1] = tested on: PTZ-induced seizures; experiment: PTZ seizure threshold test, tonic extension endpoint, Example 2; format: in vivo, mice
Description: (§1) NIH Swiss mice (22-30 g) were kept in a vivarium under controlled environmental conditions (temperature, 22-26° C.; humidity, 40-50%) with an artificial 12-h light/dark cycle. Wood chips were used in all cages. Experiments were performed during the light phase of the light/dark cycle after a minimum 30-min period of acclimation to the experimental room. The animal facilities were fully accredited by the Association for Assessment and Accreditation of Laboratory Animal Care. All studies were performed under protocols approved by the Animal Care and Use Committee of the University of California, Davis in strict compliance with the Guide for the Care and Use of Laboratory Animals of the National Research Council (National Academy Press, Washington, D.C.; on the internet at nap.edu/readingroom/books/labrats/).
Midazolam was administered as a commercially available injectable solution (midazolam hydrochloride, 10 mg/10 ml; APP Pharmaceuticals, Schaumburg, Ill., USA) containing sodium chloride (0.8% w/v), disodium edetate (0.01% w/v), benzyl alcohol as preservative (1% v/v) with HCl to adjust the pH 3-3.6. Pentylenetetrazol (PTZ) (Sigma-Aldrich, St. Louis, Mo., USA) was dissolved in 0.9% w/v saline. The remaining test substances were all obtained from Tocris Bioscience (Ellisville, Mo., USA) except for clonazepam, which was from Sigma-Aldrich. Finasteride was dissolved in 25% hydroxypropyl-β-cyclodextrin (Trappsol; Cyclodextrin Technologies Development, High Springs, Fla., U.S.A.). Metyrapone was dissolved in double distilled water and PK 11195 and clonazepam were suspended in 1% Tween 80 and adjusted to volume with saline.
PTZ seizure threshold was determined according to a protocol used previously in our laboratory (Dhir et al., 2011). Intravenous PTZ elicits a sequence of seizure signs beginning with twitch and progressing to clonus and tonic limb extension. In the present study, tonic extension was used as the endpoint. […] It is noteworthy that this is the endpoint originally used in studies characterizing the actions of midazolam against PTZ seizures in mice (Pieri, 1983 Br J Clin Pharmacol 16 Suppl 1: 17S-27S). A 27 gauge-¾ inch “butterfly” needle was inserted into the lateral tail vein and the needle was secured with a narrow piece of adhesive tape. The animal was placed inside a 2 L glass beaker with free aeration from the top and allowed to move freely. The needle was connected by polyethylene tubing to a Beckton, Dickinson 1 ml syringe mounted on an infusion pump (Model ‘11’ plus syringe pump; Harvard Apparatus, Holliston, Mass.). PTZ solution (10 mg/ml) was infused at a constant rate of 0.5 ml/min. The infusion was stopped at 3 min or at the onset of tonic extension, whichever occurred first. The threshold value (mg/kg) for tonic extension was determined according to the formula: (infusion duration [sec]×infusion rate [ml/min]×PTZ concentration [mg/ml]×1000)/(60 [sec]×weight of mouse [g]).
In an initial experiment, the dose-response relationship for midazolam elevation of seizure threshold was assessed at doses of 100 μg/kg to 5 mg/kg (15 min pretreatment time). […] PK 11195 was used at a dose (15 mg/kg) as in the study of Ugale et al. (2004 Brain Res. 2004 Oct. 8; 1023(1):102-11). Clonazepam was administered at a dose of 100 μg/kg (Akula et al., 2009). The volume of all intraperitoneal injections was 10 ml/kg.
Results are expressed as mean±S.E.M.; the significance of the difference in the responses of treatment groups with respect to control is based on one-way analysis of variance (ANOVA) followed by specific post-hoc comparisons using Tukey's test. Differences are considered statistically significant when the probability of type I error was less than 0.05.

[2] = tested on: kainic acid induced seizure; experiment: Kainic acid seizure threshold test in mice (intravenous infusion); format: in vivo
Description: as §1, with “Male NIH” for “NIH”, “D.C.).” for “D.C.; on the internet at nap.edu/readingroom/books/labrats/).”
Intratracheal administration of midazolam was carried out as described by Oka et al. (2006). In brief, mice were briefly anesthetized using isoflurane anesthesia (4% isoflurane). The animals were immediately placed on a surgical board held at a 60° angle. The animal's mouth was kept open by hanging the upper incisors on a hook to facilitate detection of the epiglottis. […]
Results are expressed as mean±S.E.M.; the significance of the difference in the responses of treatment groups with respect to control is based on one-way analysis of variance (ANOVA) followed by specific post-hoc comparisons using Tukey's test. […]

[3] = tested on: picrotoxin-induced seizure; experiment: Picrotoxin seizure threshold test in mice (intravenous infusion); format: in vivo

Cc1ncc2n1-c1ccc(Cl)cc1C(c1ccccc1F)=NC2 [Midazolam, midazolam]
PTZ threshold for tonic extension vs vehicle ([1]; intraperitoneal 500 to 5000 μg/kg (significant), 15 min before PTZ infusion (FIG. 7)): dose-dependent elevation in threshold | increase in threshold for tonic extension (vs vehicle only control) ([1]; midazolam 500 μg/kg i.p., 15 min before i.v. PTZ infusion, in the absence of finasteride): 2.3 fold | PTZ seizure threshold vs vehicle ([1]; midazolam 100 or 200 μg/kg intratracheal, 10 min before PTZ, in the absence of flumazenil (FIG. 12)): significant increase in the seizure threshold | thresholds for clonus and tonic extensor phases, kainic acid infusion ([2]; intraperitoneal 2000 μg/kg, pretreatment 10 min (FIG. 4A)): significant elevation | seizure thresholds, kainic acid infusion ([2]; intratracheal 100 μg/kg, pretreatment 10 min (FIG. 4B)): effective | seizure threshold, picrotoxin infusion ([3]; intraperitoneal 100 μg/kg, pretreatment 10 min): effective in enhancing the seizure threshold for only clonic phase and ineffective against tonic extension | thresholds for all seizure signs, picrotoxin infusion ([3]; intraperitoneal 250, 500 and 1000 μg/kg, pretreatment 10 min (FIG. 3A)): significant elevation | seizure thresholds, picrotoxin infusion ([3]; intratracheal 25 and 50 μg/kg, pretreatment 10 min (FIG. 3B)): effective
